Test results published in patent US20220305121A1, “N-ARYL SULFONAMIDE DERIVATIVES AS VACCINE ADJUVANT” (The Regents of the University of California, priority 2019, published 2022).

Assays:
Type in all cases: cell-based
THP-1 cells = assay: Cell viability assay (MTT); conditions: compound 5 μM, 18 hours incubation; normalized to DMSO as 100%; mean
Procedure: THP-1 cells were plated in 96-well plates (10^5 cells/well) in 100 μL RPMI supplemented with 10% FBS, 100 U/mL penicillin and 100 μg/ml streptomycin. Compounds were dissolved in DMSO at 1 mM stock solution and were further diluted to 10 μM in the assay medium. 100 μL of this solution was added to the cells to obtain a final compound concentration of 5 μM ([…]). After 18 hours incubation, a solution of MTT in assay media (0.5 mg/mL) was added to each well and further incubated for 4 to 6 hours, followed by addition of cell lysis buffer (15% w/v SDS and 0.12% v/v 12N HCl aqueous solution), incubated overnight, and then absorbance measured at 570 nm using 650 nm as reference using Tecan Infinite M200 plate reader.
Cell Viability Assay. THP-1 cells were plated in 96-well plates (10^5 cells/well) in 100 μL RPMI supplemented with 10% FBS, 100 U/mL penicillin, and 100 μg/mL streptomycin. Compounds were dissolved in DMSO at 1 mM stock solution and were further diluted to 10 μM in the assay medium. 100 μL of this solution was added to the cells to obtain a final compound concentration of 5 μM ([…]). After 18 h incubation, a solution of MTT in assay media (0.5 mg/mL) was added to each well and further incubated for 4-6 hours, followed by addition of cell lysis buffer (15% w/v SDS and 0.12% v/v 12 N HCl aqueous solution), incubation overnight, and then absorbance was measured at 570 nm using 650 nm as reference using Tecan Infinite M200 plate reader.

NF-κB = assay: Measurement of NF-κB activation using THP1-Blue NF-κB cells (SEAP reporter, LPS as primary stimulus); conditions: compound 5 μM + LPS, 20 hour incubation; two point normalized: compound 1 + LPS = 200%, LPS = 100%; mean
Procedure: THP1-Blue™ NF-κB cells were plated in 96-well plates at 10^5 cells/well in 100 μl RPMI supplemented with 10% fetal bovine serum (FBS, Omega Scientific, Inc., Tarzana, Calif.), 100 U/mL penicillin, 100 μg/ml streptomycin (Thermo Fisher Scientific) and Normocin (Invivogen). LPS was prepared in assay medium at a concentration of 20 μg/mL. Tested compounds were dissolved in DMSO at 1 mM as a stock solution and were further diluted in the LPS solution to a final concentration of 10 μM. 100 μL of this solution was then transferred to the plated cells to obtain a final concentration of LPS at 10 μg/mL and compound at 5 μM ([…]). The culture supernatants were harvested after a 20 hour incubation period, SEAP activity in the culture supernatants was determined by a colorimetric assay using QuantiBlue (Invivogen). Plate absorbance was read at 630 nm using a Tecan Infinite M200 plate reader (Männedorf, Switzerland). The SEAP concentration was directly proportional to NF-κB activity, which was 2-point normalized to yield activity of compound 1+LPS as 200% and activity for LPS as 100%.
Measurement of NF-κB Activation Using THP1-Blue NF-κB Cells. THP1-Blue NF-κB cells were plated in 96-well plates at 10^5 cells/well in 100 μL of RPMI supplemented with 10% fetal bovine serum (FBS, Omega Scientific, Inc., Tarzana, Calif.), 100 U/mL penicillin, 100 μg/mL streptomycin (Thermo Fisher Scientific), and Normocin (Invivogen). LPS was prepared in assay medium at a concentration of 20 μg/mL. Tested compounds were dissolved in DMSO at 1 mM as a stock solution and were further diluted in the LPS solution to a final concentration of 10 μM. 100 μL of this solution was then transferred to the plated cells to obtain a final concentration of LPS at 10 μg/mL and compound at 5 μM ([…]). The culture supernatants were harvested after a 20 hours incubation period. SEAP activity in the culture supernatants was determined by a colorimetric assay using QuantiBlue (Invivogen). Plate absorbance was read at 630 nm using a Tecan Infinite M200 plate reader (Mannedorf, Switzerland). The SEAP concentration was directly proportional to NF-κB activity, which was two-point normalized to yield activity of compound 1+LPS as 200% and activity for LPS as 100%.

ISRE = assay: Measurement of ISRE activity in ISRE-bla THP-1 cells (FRET, IFN-α as primary stimulus); conditions: compound 5 μM + IFN-α 100 U/mL, 16 hours, two point normalized: compound 1 + IFN-α = 200%, IFN-α = 100%, mean; for activity at 5 µM: Homo sapiens, THP-1, read-out: ISRE % Activation
Procedure: ISRE-bla THP-1 cells were plated in 96-well plates at 5×10^4 cells/well in 50 μl RPMI supplemented with 10% dialyzed FBS (Atlanta Biologicals, Inc., GA), 0.1 mM nonessential amino acids, 1 mM sodium pyruvate, 100 U/mL penicillin and 100 μg/ml streptomycin. Type I IFN-α (R&D Systems, #11200-2) solution was prepared in assay medium at a concentration of 200 U/mL Tested compounds were dissolved in DMSO at 1 mM and were further diluted in the IFN-α solution to a final concentration of 10 μM. 50 μL of this solution was then transferred to the plated cells to obtain a final concentration of IFN-α at 100 U/mL and compound at 5 μM ([…]), The cells were incubated for 16 hours, after which 20 μL of 6×LiveBLAzer™ FRET B/G Substrate (CCF4-AM) mixture (prepared according to the manufacturer's instructions) was added to each well, Plates were incubated at room temperature in the dark for 3 hours. Fluorescence was measured on a Tecan Infinite M200 plate reader at an excitation wavelength of 405 nm, and emission wavelengths of 465 nm and 535 nm. Background values (cell free wells at the same fluorescence wavelength) were subtracted from the raw fluorescence intensity values and the emission ratios were calculated as the ratio of background subtracted fluorescence intensities at 465 nm to background subtracted fluorescence intensities at 535 nm. The ISRE activity values for these compounds were 2-point normalized to yield activity of compound 1+IFN-α as 200% and activity for IFN-α as 100%.
Measurement of ISRE Activity in ISRE-bla THP-1 Cells. ISREbla THP-1 cells were plated in 96-well plates at 5×10^4 cells/well in 50 μL of RPMI supplemented with 10% dialyzed FBS (Atlanta Biologicals, Inc., GA), 0.1 mM nonessential amino acids, 1 mM sodium pyruvate, 100 U/mL penicillin, and 100 μg/mL streptomycin. Type I IFN-α (R&D Systems, no. 11200-2) solution was prepared in assay medium at a concentration of 200 U/mL. Tested compounds were dissolved in DMSO at 1 mM and were further diluted in the IFN-α solution to a final concentration of 10 μM. 50 μL of this solution was then transferred to the plated cells to obtain a final concentration of IFN-α at 100 U/mL and compound at 5 μM ([…]). The cells were incubated for 16 hours, after which 20 μL of 6×LiveBLAzer FRET B/G substrate (CCF4-AM) mixture (prepared according to the manufacturer's instructions) was added to each well. Plates were incubated at room temperature in the dark for 3 hours. Fluorescence was measured on a Tecan Infinite M200 plate reader at an excitation wavelength of 405 nm and emission wavelengths of 465 and 535 nm. Background values (cell free wells at the same fluorescence wavelength) were subtracted from the raw fluorescence intensity values and the emission ratios were calculated as the ratio of background subtracted fluorescence intensities at 465 nm to background subtracted fluorescence intensities at 535 nm. The ISRE activity values for these compounds were two-point normalized to yield activity of compound 1+IFN-α as 200% and activity for IFN-α as 100%.

Row | SMILES | MTT % Viability (THP-1 cells) | activity at 5 µM (NF-κB) | activity at 5 µM (ISRE) | NF-κB % Activation (NF-κB) | ISRE % Activation (ISRE)
1 | CCCN(c1cc(OC)c(Cl)cc1OC)S(=O)(=O)c1ccc(OCC)cc1 [Compound 34, N-(4-chloro-2,5-dimethoxyphenyl)-4-ethoxy-N-propylbenzenesulfonamide] | 71.6% | 227% | 199% | – | –
2 | CCOC(=O)CCCN(c1cc(OC)c(Cl)cc1OC)S(=O)(=O)c1ccc(OCC)cc1 [Compound 50, Ethyl 4-((N-(4-chloro-2,5-dimethoxyphenyl)-4-ethoxyphenyl)sulfonamido)butanoate] | 80.1% | 199% | 199% | – | –
3 | CCCCCCN(c1cc(OC)c(Cl)cc1OC)S(=O)(=O)c1ccc(OCC)cc1 [Compound 37, N-(4-chloro-2,5-dimethoxyphenyl)-4-ethoxy-N-hexylbenzenesulfonamide] | 95.2% | 81% | 99% | – | –
4 | CCOc1ccc(S(=O)(=O)Nc2cc(OC)c([N+](=O)[O-])cc2OC)cc1 [Compound 9, N-(2,5-dimethoxy-4-nitrophenyl)-4-ethoxybenzenesulfonamide] | 79.2% | 133% | 110% | – | –
5 | COc1cc(NS(=O)(=O)c2ccc(CNC(=O)OC(C)(C)C)cc2)c(OC)cc1Cl [Compound 20, tert-butyl (4-(N-(4-chloro-2,5-dimethoxyphenyl)sulfamoyl)benzyl) carbamate] | 109.2% | – | – | 100% | 101%
6 | CCCCCN(c1cc(OC)c(Cl)cc1OC)S(=O)(=O)c1ccc(OCC)cc1 [Compound 36, N-(4-chloro-2,5-dimethoxyphenyl)-4-ethoxy-N-pentylbenzenesulfonamide] | 72.9% | 135% | 105% | – | –
7 | CCCCCCCCCCCCN(c1cc(OC)c(Cl)cc1OC)S(=O)(=O)c1ccc(OCC)cc1 [Compound 39, N-(4-chloro-2,5-dimethoxyphenyl)-4-ethoxy-N-dodecylbenzenesulfonamide] | 93.0% | 97% | 100% | – | –
8 | COc1cc(NS(=O)(=O)c2ccc(CN)cc2)c(OC)cc1Cl [Compound 21, 4-(aminomethyl)-N-(4-chloro-2,5-dimethoxyphenyl)benzenesulfonamide] | 97.0% | 103% | 111% | – | –
9 | C#CCN(c1cc(OC)c(Cl)cc1OC)S(=O)(=O)c1ccc(OCC)cc1 [Compound 42, N-(4-chloro-2,5-dimethoxyphenyl)-4-ethoxy-N-(prop-2-yn-1-yl) benzenesulfonamide] | 72.0% | – | – | 232% | 213%
10 | CCCCCCCN(c1cc(OC)c(Cl)cc1OC)S(=O)(=O)c1ccc(OCC)cc1 [Compound 38, N-(4-chloro-2,5-dimethoxyphenyl)-4-ethoxy-N-heptylbenzenesulfonamide] | 90.4% | 108% | 95% | – | –
11 | COc1cc(NS(=O)(=O)c2ccc(N)cc2)c(OC)cc1Cl [Compound 18, 4-Amino-N-(4-chloro-2,5-dimethoxyphenyl)benzenesulfonamide] | 96.0% | 101% | 103% | – | –
12 | COc1cc(NS(=O)(=O)c2ccc(C#N)cc2)c(OC)cc1Cl [Compound 19, N-(4-chloro-2,5-dimethoxyphenyl)-4-cyanobenzenesulfonamide] | 102.9% | 97% | 106% | – | –
13 | CCOc1ccc(S(=O)(=O)Nc2cc(OC)c(N)cc2OC)cc1 [Compound 10, N-(4-amino-2,5-dimethoxyphenyl)-4-ethoxybenzenesulfonamide] | 92.2% | 101% | 102% | – | –
14 | CCOc1ccc(S(=O)(=O)N(CCCC(=O)O)c2cc(OC)c(Cl)cc2OC)cc1 [Compound 53, 4-((N-(4-chloro-2,5-dimethoxyphenyl)-4-ethoxyphenyl)sulfonamido)butanoic acid] | 73.4% | 230% | 151% | – | –
15 | CCCCN(c1cc(OC)c(Cl)cc1OC)S(=O)(=O)c1ccc(OCC)cc1 [Compound 35, N-(4-chloro-2,5-dimethoxyphenyl)-4-ethoxy-N-butylbenzenesulfonamide] | 77.7% | 192% | 156% | – | –
16 | CCOc1ccc(S(=O)(=O)N(CCCN)c2cc(OC)c(N=[N+]=[N-])cc2OC)cc1 [Compound 63, N-(3-aminopropyl)-N-(4-azido-2,5-dimethoxyphenyl)-4-ethoxybenzenesulfonamide] | 68.9% | – | – | – | –
